Calls of active or inactive are those of the source. The rule behind the calls is not given here.
What follows are compounds tested against Transient receptor potential cation channel subfamily V member 1 (Rattus norvegicus) (UniProt O35433) (assay: Agonist activity at TRPV1 in rat dorsal root ganglia neurons by 45Ca2+ uptake assay).
Transient receptor potential cation channel subfamily V member 1 (Rattus norvegicus), sequence (O35433 whole entry): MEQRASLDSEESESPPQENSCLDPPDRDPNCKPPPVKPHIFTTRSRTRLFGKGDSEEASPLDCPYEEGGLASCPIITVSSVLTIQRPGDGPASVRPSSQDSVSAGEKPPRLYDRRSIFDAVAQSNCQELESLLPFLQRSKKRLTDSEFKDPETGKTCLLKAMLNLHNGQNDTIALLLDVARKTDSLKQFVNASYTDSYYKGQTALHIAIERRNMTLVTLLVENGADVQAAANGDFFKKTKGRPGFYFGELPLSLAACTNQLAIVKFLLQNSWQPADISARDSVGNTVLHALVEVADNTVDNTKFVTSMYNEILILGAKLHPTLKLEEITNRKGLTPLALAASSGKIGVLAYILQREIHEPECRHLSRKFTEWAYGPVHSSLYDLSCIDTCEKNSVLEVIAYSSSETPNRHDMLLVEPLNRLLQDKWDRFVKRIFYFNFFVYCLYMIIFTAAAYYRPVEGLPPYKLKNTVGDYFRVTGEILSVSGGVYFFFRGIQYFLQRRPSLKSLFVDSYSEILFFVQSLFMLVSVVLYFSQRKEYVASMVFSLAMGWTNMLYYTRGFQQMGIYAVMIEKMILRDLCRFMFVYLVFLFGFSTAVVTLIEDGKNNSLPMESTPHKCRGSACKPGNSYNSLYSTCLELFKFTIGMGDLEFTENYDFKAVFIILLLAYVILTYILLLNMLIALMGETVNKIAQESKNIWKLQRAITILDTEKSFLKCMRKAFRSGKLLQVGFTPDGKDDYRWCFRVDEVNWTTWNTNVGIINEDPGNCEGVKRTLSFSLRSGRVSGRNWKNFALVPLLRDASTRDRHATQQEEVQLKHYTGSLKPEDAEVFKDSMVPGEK
`COc1cc(CNC(=O)CCCC/C=C/C(C)C)ccc1O` was tested, and the Activity was “Active”. With `CCOC(=O)[C@H]1[C@H]2COc3ccc(Cl)cc3[C@@H]2N2C(=O)c3ccc(C)cc3NC(=O)[C@@]12C` the Activity was “Active”.

These compounds were tested against Transient receptor potential cation channel subfamily V member 1 (Rattus norvegicus) (UniProt O35433) (assay: Partial agonist activity at TRPV1 in rat dorsal root ganglia neurons by 45Ca2+ uptake assay).
For `CCOC(=O)[C@@H]1[C@H]2COc3c(F)cccc3[C@@H]2N[C@]1(C)C(=O)Nc1cc(C)ccc1C(=O)OC`, the Activity was “Active”. In the case of `CCOC(=O)[C@@H]1[C@H]2COc3ccc(OC)cc3[C@@H]2N[C@]1(C)C(=O)Nc1cc(C)ccc1C(=O)OC`, the Activity is reported as “Active”. For `CCOC(=O)[C@@H]1[C@H]2COc3ccc(F)cc3[C@@H]2N[C@]1(C)C(=O)Nc1cc(C)ccc1C(=O)OC`, the Activity was “Active”. `CCOC(=O)[C@@H]1[C@H]2COc3ccc(Cl)cc3[C@@H]2N[C@]1(C)C(=O)Nc1cc(C)ccc1C(=O)OC` was tested, and the Activity was “Active”.

From ChEMBL document CHEMBL3112431, “Constrained TRPV1 agonists synthesized via silver-mediated intramolecular azo-methine ylide cycloaddition of α-iminoamides” (Bioorg Med Chem Lett, 2014)
